Like-named read-outs stand apart in the source and are kept apart here.
Tests used:
[1] = target: T1, Avi-KRAS G12D (1-169) GppNHp/RAF1 RBD-3xFLAG (52-151) (Homo sapiens, UniProt P01116, G12D); test: RAS-effector PPI HTRF disruption assay, Raf1-GppNHp-KRAS G12D; format: biochemical
T1 construct: 100 nM Avi-KRAS G12D (1-169) GppNHp
Experimental: (§1) A protein:protein interaction (PPI) Homogeneous Time Resolved Fluorescence (HTRF) assay was used to determine the effectiveness of compounds of the present disclosure in disrupting KRAS protein and effector (RAF1 or PIK3 CA) binding.
(§2) The HTRF assay used the following reagents and proteins: (i) 375 nM Avi-KRAS G12D/Q25A (1-169) GppNHp/3×FLAG-PI3KCA (157-299); (ii) 100 nM Avi-KRAS G12D (1-169) GppNHp/RAF1 RBD-3×FLAG (52-151); (iii) 50 nM Avi-KRAS G12V (1-169) GppNHp/RAF1 RBD-3×FLAG (52-151); (iv) 50 nM Avi-KRAS WT (1-169) GppNHp/RAF1 RBD-3×FLAG (52-151); and (v) 35 nM Avi-PI3K RBD CA-3×FLAG; Assay Buffer: 50 mM Tris pH 7.5, 100 mM NaCl, 5 mM MgCl2, 0.1% BSA, 0.01% Tween, 1 mM TCEP, 10% DMSO; Bead Buffer: 50 mM Tris pH 7.5, 0.01% Tween 20; Assay volume: 20 μL (384 well plate-low volume format); and Compound titration: 100-0.02 μM, 3× dilution series.
(§3) The HTRF assay employed the following protocol:
(§4) Compounds were dispensed in assay plate (384-well, Grenier Bione #784075) using Echo (model 555) with dose response settings: 200 nL final volume, titration from 100 μM as a 10-point dilution series. Protein mix was prepared in assay buffer, and dispensed on plates, 10 μL per well, then incubated for 1 h at room temperature, with 700 rpm shaking. Reagents mix was prepared and dispensed on plates, 10 μL per well, then incubated for 1 h at room temperature, with 700 rpm shaking.
(§5) Plates were analyzed on an Envision plate reader using the following setting: Excitation 320 nm, Bandwidth […]; Emission 615 nm, Bandwidth […], Gain 100%, Flashes 100, Lag 60 μs. Data was reported as percentage of activity, with DMSO as 100%. Data was plotted and analyzed using Prism 8. The SPR Kd, biochemical Raf1-KRAS G12D/G12V/WT-GppNHP and PI3KCA-KRAS G12D/Q25A-GppNHp disruption assay IC50 of selected compounds described herein are shown in Table 4.

[2] = target: T2, Avi-KRAS G12D/Q25A (1-169) GppNHp/3xFLAG-PI3KCA (157-299) (Homo sapiens, UniProt P01116, G12D/Q25A); test: RAS-effector PPI HTRF disruption assay, PI3KCA-GppNHp-KRAS G12D/Q25A; format: biochemical
T2 construct: 375 nM Avi-KRAS G12D/Q25A (1-169) GppNHp
T2 sequence (P01116 1-169 isoform P01116-2 G12D/Q25A): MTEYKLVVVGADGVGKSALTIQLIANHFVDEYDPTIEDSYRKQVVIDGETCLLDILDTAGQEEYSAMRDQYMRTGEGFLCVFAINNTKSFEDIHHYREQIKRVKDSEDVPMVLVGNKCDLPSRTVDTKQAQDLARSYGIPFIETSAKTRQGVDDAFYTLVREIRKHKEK
Experimental: as §1, §2, §3, §4, §5

[3] = target: T3, Avi-KRAS G12V (1-169) GppNHp/RAF1 RBD-3xFLAG (52-151) (Homo sapiens, UniProt P01116, G12V); test: RAS-effector PPI HTRF disruption assay, Raf1-GppNHp-KRAS G12V; format: biochemical
T3 construct: 50 nM Avi-KRAS G12V (1-169) GppNHp
T3 sequence (P01116 1-169 isoform P01116-2 G12V): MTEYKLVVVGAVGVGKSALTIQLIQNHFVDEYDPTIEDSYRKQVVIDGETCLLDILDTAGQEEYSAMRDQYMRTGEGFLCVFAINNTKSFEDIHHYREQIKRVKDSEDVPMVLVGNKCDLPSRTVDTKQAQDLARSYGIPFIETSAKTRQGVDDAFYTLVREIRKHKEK
Experimental: as §1, §2, §3, §4, §5

[4] = target: T4, Avi-KRAS WT (1-169) GppNHp/RAF1 RBD-3xFLAG (52-151) (Homo sapiens, UniProt P01116); test: RAS-effector PPI HTRF disruption assay, Raf1-GppNHp-KRAS WT; format: biochemical
T4 construct: 50 nM Avi-KRAS WT (1-169) GppNHp
T4 sequence (P01116 1-169 isoform P01116-2): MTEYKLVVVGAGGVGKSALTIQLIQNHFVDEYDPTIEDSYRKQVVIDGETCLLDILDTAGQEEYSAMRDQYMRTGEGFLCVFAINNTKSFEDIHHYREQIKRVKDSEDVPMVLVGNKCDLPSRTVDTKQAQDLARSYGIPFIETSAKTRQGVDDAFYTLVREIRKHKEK
Experimental: as §1, §2, §3, §4, §5

[5] = tested on: pERK in GP2d cells (KRAS G12D); test: Cell-based pERK HTRF assay in GP2d cell; settings: 60 min incubation
Experimental: A pERK assay (Perkin Elmer) was used to determine the effectiveness of compounds in disrupting KRAS G12D protein/effector signaling in cells.
On Day 1, cells (GP2d) were seeded into 96-well plates at 3×10^4 cells/well in 80 μL complete growth media (DMEM, 10% FBS).
On Day 2, cells were treated with compounds at 0.25% DMSO. The source plate was created with compounds diluted in media at 5-fold the final assay concentration. The compounds were run in a 9-point concentration curve starting at 1 μM, with a half-log dilution between concentrations. 20 μL was transferred onto the cell plates (final volume in wells was 100 μL). Plates were harvested after 60 min incubation by aspirating media and adding kit-supplied 1× supplemented lysis buffer to all wells (50 μL per well). Plates were then placed on a plate shaker and incubated at 850 rpm for an additional 30 min.
Antibody mixture solution is prepared by diluting aliquoted d2 and Eu Cryptate antibodies 1:20 in kit supplied detection buffer, mix the diluted antibodies solutions (1:1 v:v). 4 μL of this solution is then added to a 384-well detection plate (Perkin Elmer; 6008230).
Samples were homogenized by pipetting up and down and then transferred (16 μL of cell lysates) from the 96-well cell culture plate to two wells of the HTRF 384-well detection plate containing the antibody solution. Plates were centrifuged (524 g for 1 min) and allowed to incubate between 4 and 24 h at room temperature. Maximum signal is reached after 4 h incubation time and remains stable over a period of 24 hours. Therefore, readings can be made between 4 and 24 h of incubation. Plates were centrifuged again (524 g for Imin), then analyzed on the EnVision plate reader using the following settings: Excitation 320 nm, Bandwidth 75 nm; Emission 615 nm, Bandwidth 85 nm; Gain 100%; Flashes 100; Lag 60 μs.

T1 sequence (P01116 1-169 isoform P01116-2 G12D): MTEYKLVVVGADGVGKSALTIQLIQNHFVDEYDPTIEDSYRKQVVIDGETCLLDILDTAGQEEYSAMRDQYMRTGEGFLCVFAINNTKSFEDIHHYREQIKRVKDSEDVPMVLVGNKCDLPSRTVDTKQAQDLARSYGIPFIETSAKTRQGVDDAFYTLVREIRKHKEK

Compound | IC50 [1] [µM] | IC50 [2] [µM] | IC50 [3] [µM] | IC50 [4] [µM] | IC50 ([5]; read-out: pERK-Gp2D-1 hr) [µM] | IC50 ([5]; GP2d, 1 h) [µM]
Nc1nc2c(-c3c(C(F)(F)F)cc4c(O[C@@H]5CCNC5)nc(OC[C@@]56CCCN5C[C@H](F)C6)nc4c3F)ccc(F)c2s1 (atropisomer, axis not shown) [Compound 5] | > 10 | > 10 | > 10 | > 10 |  | 
N#Cc1c(N)sc2c(F)ccc(-c3c(C(F)(F)F)cc4c(O[C@H]5CCC6(CNC6)C5)nc(OC[C@@]56CCCN5C[C@H](F)C6)nc4c3F)c12 (atropisomer, axis not shown) [Compound 78] | 1 to 10 |  | > 10 | 1 to 10 | > 1 | 
COC[C@H]1C[C@@H](Oc2nc(OC[C@@]34CCCN3C[C@H](F)C4)nc3c(F)c(-c4ccc(F)c5sc(N)c(C#N)c45)c(C(F)(F)F)cc23)CN1 (atropisomer, axis not shown) [Compound 81] | > 10 |  | > 10 | > 10 | > 1 | 
C[C@H]1CNCC1Oc1nc(OC[C@@]23CCCN2C[C@H](F)C3)nc2c(F)c(-c3ccc(F)c4sc(N)nc34)c(C(F)(F)F)cc12 (some centres unmarked) [Compound 1] | 1 to 10 |  |  |  |  | 
CN1CCC[C@H]1COc1nc(OC2CNC2)c2cc(Cl)c(-c3ccc(F)c4sc(N)nc34)c(F)c2n1 [Compound 3] | > 10 |  |  |  |  | 
Nc1nc2c(-c3c(C(F)(F)F)cc4c(O[C@@H]5CCNC5)nc(OCC56CCCN5C[C@H](F)C6)nc4c3F)ccc(F)c2s1 (some centres unmarked) [Compound 4] |  |  |  |  |  | ≤ 0.1
Nc1nc2c(-c3ccc4c(O[C@H]5CNC[C@H]5F)nc(OC[C@@]56CCCN5C[C@H](F)C6)nc4c3F)ccc(F)c2s1 [Compound 82] | > 10 |  | > 10 | > 10 |  | > 1
C[C@H]1NCC[C@H]1Oc1nc(OC[C@@]23CCCN2C[C@H](F)C3)nc2c(F)c(-c3ccc(F)c4sc(N)nc34)ccc12 [Compound 83] | > 10 |  | > 10 | > 10 |  | > 1
COC[C@H]1NCC[C@H]1Oc1nc(OC[C@@]23CCCN2C[C@H](F)C3)nc2c(F)c(-c3ccc(F)c4sc(N)c(C#N)c34)ccc12 [Compound 91] | > 10 |  | > 10 | > 10 |  | 0.1 to 1
N#Cc1c(-c2ccc(F)c3sc(N)c(C#N)c23)c(Cl)cc2c(O[C@H]3CNC[C@H]3F)nc(OC[C@@]34CCCN3C[C@H](F)C4)nc12 [Compound 92] | 1 to 10 |  | > 10 | 1 to 10 |  | 0.1 to 1
N#Cc1c(N)sc2c(F)ccc(-c3cc4nc(OC[C@@]56CCCN5C[C@H](F)C6)nc(O[C@@H]5CCNC5)c4nc3C(F)(F)F)c12 [Compound 93, 2-amino-7-fluoro-4-(2-(((2R,7aS)-2-fluorotetrahydro-1H-pyrrolizin-7a(5H)-yl)methoxy)-4-(((R)-pyrrolidin-3-yl)oxy)-6-(trifluoromethyl)pyrido[3,2-d]pyrimidin-7-yl)benzo[b]thiophene-3-carbonitrile] | 1 to 10 |  | 1 to 10 | 1 to 10 |  | ≤ 0.1
C[C@@H]1C[C@@H](Oc2nc(OC[C@@]34CCCN3C[C@H](F)C4)nc3cc(-c4ccc(F)c5sc(N)c(C#N)c45)c(C(F)(F)F)nc23)CN1 [Compound 94] | 1 to 10 |  | 1 to 10 | 1 to 10 |  | ≤ 0.1
C[C@@H]1C[C@@H](Oc2nc(OC[C@@]34CCCN3C[C@H](F)C4)nc3cc(-c4ccc(F)c5sc(N)c(C#N)c45)c(C(F)(F)F)nc23)CN1 [Compound 95] | > 10 |  | > 10 | > 10 | 0.1 to 1 | 

The remaining lines, values ahead:

IC50 [1] [µM] | IC50 [2] [µM] | IC50 [3] [µM] | IC50 [4] [µM] | IC50 ([5]; read-out: pERK-Gp2D-1 hr) [µM] | IC50 ([5]; GP2d, 1 h) [µM] | Compound
0.1 to 1 | 0.1 to 1 | 1 to 10 | 1 to 10 |  |  | Nc1nc2c(-c3c(C(F)(F)F)cc4c(O[C@@H]5CCNC5)nc(OC[C@@]56CCCN5C[C@H](F)C6)nc4c3F)ccc(F)c2s1 (atropisomer, axis not shown) [Compound 4]
1 to 10 | 1 to 10 | > 10 | 1 to 10 |  |  | Nc1nc2c(-c3c(C(F)(F)F)cc4c(O[C@H]5C[C@H]6CC[C@@H](C5)N6)nc(OCC56CCCN5CCC6)nc4c3F)ccc(F)c2s1 (atropisomer, axis not shown) [Compound 6]
≤ 0.1 |  | ≤ 0.1 | ≤ 0.1 | ≤ 0.1 |  | N#Cc1c(N)sc2c(F)ccc(-c3c(C(F)(F)F)cc4c(O[C@H]5CCC6(CNC6)C5)nc(OC[C@@]56CCCN5C[C@H](F)C6)nc4c3F)c12 (atropisomer, axis not shown) [Compound 79]
≤ 0.1 |  | 0.1 to 1 | 0.1 to 1 | ≤ 0.1 |  | COC[C@H]1C[C@@H](Oc2nc(OC[C@@]34CCCN3C[C@H](F)C4)nc3c(F)c(-c4ccc(F)c5sc(N)c(C#N)c45)c(C(F)(F)F)cc23)CN1 (atropisomer, axis not shown) [Compound 80]
≤ 0.1 |  | 0.1 to 1 | 0.1 to 1 |  | ≤ 0.1 | COC[C@@H]1C[C@@H](Oc2nc(OC[C@@]34CCCN3C[C@H](F)C4)nc3c(F)c(-c4ccc(F)c5sc(N)c(C#N)c45)c(C(F)(F)F)cc23)CN1 (atropisomer, axis not shown) [Compound 84]
≤ 0.1 |  | 0.1 to 1 | ≤ 0.1 |  | 0.1 to 1 | N#Cc1c(N)sc2c(F)ccc(-c3c(C(F)(F)F)cc4c(O[C@@H]5CCC6(CNC6)C5)nc(OC[C@@]56CCCN5C[C@H](F)C6)nc4c3F)c12 (atropisomer, axis not shown) [Compound 85]
≤ 0.1 |  | 0.1 to 1 | ≤ 0.1 |  | 0.1 to 1 | N#Cc1c(N)sc2c(F)ccc(-c3c(C(F)(F)F)cc4c(OC5CCC6(CC5)CNC6)nc(OC[C@@]56CCCN5C[C@H](F)C6)nc4c3F)c12 [Compound 40]
0.1 to 1 |  | 0.1 to 1 | 0.1 to 1 |  | 0.1 to 1 | N#Cc1c(N)sc2c(F)ccc(-c3c(C(F)(F)F)cc4c(OC5CC6(CNC6)C5)nc(OC[C@@]56CCCN5C[C@H](F)C6)nc4c3F)c12 [Compound 43]
0.1 to 1 |  | 1 to 10 | 0.1 to 1 |  | ≤ 0.1 | COC[C@H]1NCC[C@H]1Oc1nc(OC[C@@]23CCCN2C[C@H](F)C3)nc2c(F)c(-c3ccc(F)c4sc(N)c(C#N)c34)c(C(F)(F)F)cc12 [Compound 90]
0.1 to 1 |  | 1 to 10 | 0.1 to 1 |  | ≤ 0.1 | C[C@H]1NCC[C@H]1Oc1nc(OC[C@@]23CCCN2C[C@H](F)C3)nc2cc(-c3ccc(F)c4sc(N)c(C#N)c34)c(C(F)(F)F)nc12 [Compound 96]

Reference: patent US20250084079A1, “COMPOSITIONS AND METHODS FOR INHIBITION OF RAS” (TheRas, Inc., priority 2022, published 2025)
